Laboratory results taken from PubChem BioAssay (NCI).
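Cells were grown in 96-well plates and exposed to each compound for 48 hours at five concentrations; endpoints were interpolated linearly between bracketing concentrations, or set to the highest concentration if not reached. GI50 = concentration required for 50% inhibition of growth. The concentration for full growth arrest is given as TGI.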

Legend:
Assay in all cases: DTP human tumour cell line panel, 48 h; in the data active = GI50 below about 0.43 µM; inactive = the rest
HCT-15 colon = test system: HCT-15 colon
PC-3 prostate = test system: PC-3 prostate
DU-145 prostate = test system: DU-145 prostate
CCRF-CEM leukemia = test system: CCRF-CEM leukemia
ACHN renal = test system: ACHN renal
NCI-H522 lung = test system: NCI-H522 lung
T-47D breast = test system: T-47D breast
COLO 205 colon = test system: COLO 205 colon
RXF 393 renal = test system: RXF 393 renal
SK-MEL-5 melanoma = test system: SK-MEL-5 melanoma
RPMI-8226 leukemia = test system: RPMI-8226 leukemia
MDA-MB-468 breast = test system: MDA-MB-468 breast
OVCAR-8 ovarian = test system: OVCAR-8 ovarian
HOP-92 NSCLC = test system: HOP-92 NSCLC
HS 578T breast = test system: HS 578T breast
NCI-H226 lung = test system: NCI-H226 lung
A549 NSCLC = test system: A549 NSCLC
HT29 colon = test system: HT29 colon
M14 melanoma = test system: M14 melanoma
UACC-62 melanoma = test system: UACC-62 melanoma
HCT-116 colon = test system: HCT-116 colon
SW-620 colon = test system: SW-620 colon
BT-549 breast = test system: BT-549 breast
OVCAR-3 ovarian = test system: OVCAR-3 ovarian
UACC-257 melanoma = test system: UACC-257 melanoma
MDA-MB-435 = test system: MDA-MB-435
KM12 colon = test system: KM12 colon
K-562 leukemia = test system: K-562 leukemia
EKVX NSCLC = test system: EKVX NSCLC
CAKI-1 renal = test system: CAKI-1 renal
OVCAR-5 ovarian = test system: OVCAR-5 ovarian
MCF7 breast = test system: MCF7 breast
A498 renal = test system: A498 renal
MOLT-4 leukemia = test system: MOLT-4 leukemia
MALME-3M melanoma = test system: MALME-3M melanoma
SK-OV-3 ovarian = test system: SK-OV-3 ovarian
HL-60(TB) leukemia = test system: HL-60(TB) leukemia
SK-MEL-28 melanoma = test system: SK-MEL-28 melanoma
NCI-H460 lung = test system: NCI-H460 lung
NCI/ADR-RES ovarian = test system: NCI/ADR-RES ovarian
OVCAR-4 ovarian = test system: OVCAR-4 ovarian
LOX IMVI melanoma = test system: LOX IMVI melanoma
NCI-H23 lung = test system: NCI-H23 lung
U251 CNS = test system: U251 CNS
SR leukemia = test system: SR leukemia
TK-10 renal = test system: TK-10 renal
SN12C renal = test system: SN12C renal
786-0 renal = test system: 786-0 renal
HCC-2998 colon = test system: HCC-2998 colon
SF-268 CNS = test system: SF-268 CNS
SF-295 CNS = test system: SF-295 CNS
SF-539 CNS = test system: SF-539 CNS
IGROV1 ovarian = test system: IGROV1 ovarian
HOP-62 NSCLC = test system: HOP-62 NSCLC
SNB-19 CNS = test system: SNB-19 CNS
MDA-MB-231 breast = test system: MDA-MB-231 breast
UO-31 renal = test system: UO-31 renal

N#CC1=C(c2ccco2)Nc2c(c(-c3ccccc3)nn2-c2ccccc2)C12C(=O)Nc1ccc(Cl)cc12 (configuration not stated)
47.1 µM: TGI (LOX IMVI melanoma)
30.9 µM: TGI (A498 renal)
25.1 µM: TGI (A549 NSCLC)
inactive: GI50 (HCT-15 colon) 19.6 µM | GI50 (PC-3 prostate) 12 µM | GI50 (DU-145 prostate) 19.4 µM | GI50 (CCRF-CEM leukemia) 49.7 µM | GI50 (ACHN renal) 18.1 µM | GI50 (NCI-H522 lung) 14.5 µM | GI50 (T-47D breast) 19.5 µM | GI50 (COLO 205 colon) 14.7 µM | GI50 (RXF 393 renal) 13.2 µM | GI50 (SK-MEL-5 melanoma) 18 µM | GI50 (RPMI-8226 leukemia) 18.7 µM | GI50 (MDA-MB-468 breast) 19 µM | GI50 (OVCAR-8 ovarian) 15.7 µM | GI50 (HOP-92 NSCLC) 12.8 µM | GI50 (HS 578T breast) 12.6 µM | GI50 (NCI-H226 lung) 17.5 µM | GI50 (A549 NSCLC) 11.6 µM | GI50 (HT29 colon) 14.6 µM | GI50 (M14 melanoma) 15 µM | GI50 (UACC-62 melanoma) 11.4 µM | GI50 (HCT-116 colon) 13.1 µM | GI50 (SW-620 colon) 30.3 µM | GI50 (BT-549 breast) 12.2 µM | GI50 (OVCAR-3 ovarian) 20.4 µM | GI50 (UACC-257 melanoma) 16.6 µM | GI50 (MDA-MB-435) 34.8 µM | GI50 (KM12 colon) 49.5 µM | GI50 (K-562 leukemia) 16.6 µM | GI50 (EKVX NSCLC) 16.5 µM | GI50 (CAKI-1 renal) 29.5 µM | GI50 (OVCAR-5 ovarian) 23.8 µM | GI50 (MCF7 breast) 15.7 µM | GI50 (A498 renal) 14.5 µM | GI50 (MOLT-4 leukemia) 6.05 µM | GI50 (MALME-3M melanoma) 14.7 µM | GI50 (SK-OV-3 ovarian) 15.8 µM | GI50 (HL-60(TB) leukemia) 15 µM | GI50 (SK-MEL-28 melanoma) 15.5 µM | GI50 (NCI-H460 lung) 14.1 µM | GI50 (NCI/ADR-RES ovarian) 14.8 µM | GI50 (OVCAR-4 ovarian) 15.4 µM | GI50 (LOX IMVI melanoma) 19.2 µM | GI50 (NCI-H23 lung) 15.5 µM | GI50 (U251 CNS) 13.3 µM | GI50 (SR leukemia) 23.3 µM | GI50 (TK-10 renal) 15 µM | GI50 (SN12C renal) 17 µM | GI50 (786-0 renal) 16.2 µM | GI50 (HCC-2998 colon) 19.2 µM | GI50 (SF-268 CNS) 17.8 µM | GI50 (SF-295 CNS) 16.9 µM | GI50 (SF-539 CNS) 17.9 µM | GI50 (IGROV1 ovarian) 16.3 µM | GI50 (HOP-62 NSCLC) 14.8 µM | GI50 (SNB-19 CNS) 17.4 µM
38.8 µM: TGI (NCI-H522 lung)
30.6 µM: TGI (TK-10 renal)
43.9 µM: TGI (DU-145 prostate)
> 100 µM: TGI (HCT-15 colon) | TGI (CCRF-CEM leukemia) | TGI (T-47D breast) | TGI (RPMI-8226 leukemia) | TGI (SW-620 colon) | TGI (MDA-MB-435) | TGI (KM12 colon) | TGI (K-562 leukemia) | TGI (CAKI-1 renal) | TGI (OVCAR-5 ovarian) | TGI (HL-60(TB) leukemia) | TGI (SR leukemia)
41.8 µM: TGI (SK-MEL-5 melanoma)
49.7 µM: TGI (MCF7 breast)
33 µM: TGI (SK-MEL-28 melanoma)
32.7 µM: TGI (M14 melanoma)
33.3 µM: TGI (OVCAR-4 ovarian)
26 µM: TGI (HCT-116 colon)
29.8 µM: TGI (MALME-3M melanoma)
50.2 µM: TGI (NCI-H226 lung)
58.9 µM: TGI (HCC-2998 colon)
64.7 µM: TGI (MDA-MB-468 breast)
38.4 µM: TGI (IGROV1 ovarian)
40.9 µM: TGI (HS 578T breast)
28.2 µM: TGI (UACC-62 melanoma) | TGI (BT-549 breast)
46 µM: TGI (SNB-19 CNS)
91.2 µM: TGI (MOLT-4 leukemia)
31.8 µM: TGI (NCI-H460 lung)
28.5 µM: TGI (HOP-92 NSCLC)
30.2 µM: TGI (HT29 colon)
66 µM: TGI (EKVX NSCLC)
61 µM: TGI (ACHN renal) | TGI (OVCAR-3 ovarian)
41.4 µM: TGI (UACC-257 melanoma)
40.6 µM: TGI (SF-539 CNS)
33.9 µM: TGI (SK-OV-3 ovarian)
56 µM: TGI (786-0 renal)
36.7 µM: TGI (SN12C renal)
29.7 µM: TGI (COLO 205 colon)
28 µM: TGI (PC-3 prostate)
30.7 µM: TGI (OVCAR-8 ovarian)
56.3 µM: TGI (SF-295 CNS)
32.4 µM: TGI (NCI-H23 lung)
90.1 µM: TGI (SF-268 CNS)
30 µM: TGI (NCI/ADR-RES ovarian)
29.9 µM: TGI (RXF 393 renal)
29.2 µM: TGI (U251 CNS)
28.9 µM: TGI (HOP-62 NSCLC)

O=C(Nc1ccc(C(F)(F)F)cc1)Nc1ccc2oc(=O)ccc2c1
> 100 µM: TGI (HCT-15 colon) | TGI (PC-3 prostate) | TGI (CCRF-CEM leukemia) | TGI (ACHN renal) | TGI (NCI-H522 lung) | TGI (T-47D breast) | TGI (RXF 393 renal) | TGI (MDA-MB-468 breast) | TGI (OVCAR-8 ovarian) | TGI (HS 578T breast) | TGI (NCI-H226 lung) | TGI (MDA-MB-231 breast) | TGI (UACC-62 melanoma) | TGI (HCT-116 colon) | TGI (BT-549 breast) | TGI (KM12 colon) | TGI (CAKI-1 renal) | TGI (OVCAR-5 ovarian) | TGI (MCF7 breast) | TGI (A498 renal) | TGI (MOLT-4 leukemia) | TGI (MALME-3M melanoma) | TGI (SK-OV-3 ovarian) | TGI (SK-MEL-28 melanoma) | TGI (NCI-H460 lung) | TGI (NCI/ADR-RES ovarian) | TGI (OVCAR-4 ovarian) | TGI (U251 CNS) | TGI (SR leukemia) | TGI (TK-10 renal) | TGI (786-0 renal) | TGI (HCC-2998 colon) | TGI (SF-268 CNS) | TGI (UO-31 renal) | TGI (SF-295 CNS) | TGI (SF-539 CNS) | TGI (IGROV1 ovarian) | TGI (HOP-62 NSCLC) | TGI (SNB-19 CNS)
inactive: GI50 (HCT-15 colon) 2.91 µM | GI50 (PC-3 prostate) 2.34 µM | GI50 (CCRF-CEM leukemia) 3.2 µM | GI50 (ACHN renal) 2.7 µM | GI50 (NCI-H522 lung) 2.8 µM | GI50 (T-47D breast) 2.85 µM | GI50 (RXF 393 renal) 18.2 µM | GI50 (RPMI-8226 leukemia) 2.04 µM | GI50 (MDA-MB-468 breast) 2.97 µM | GI50 (OVCAR-8 ovarian) 5.93 µM | GI50 (HOP-92 NSCLC) 1.49 µM | GI50 (HS 578T breast) 16.7 µM | GI50 (NCI-H226 lung) 3.67 µM | GI50 (MDA-MB-231 breast) 11.7 µM | GI50 (UACC-62 melanoma) 5.76 µM | GI50 (HCT-116 colon) 2.95 µM | GI50 (BT-549 breast) 3.4 µM | GI50 (KM12 colon) 3.51 µM | GI50 (CAKI-1 renal) 2.58 µM | GI50 (OVCAR-5 ovarian) > 100 µM | GI50 (MCF7 breast) 2.48 µM | GI50 (A498 renal) > 100 µM | GI50 (MOLT-4 leukemia) 2.86 µM | GI50 (MALME-3M melanoma) 4.87 µM | GI50 (SK-OV-3 ovarian) 91.4 µM | GI50 (SK-MEL-28 melanoma) > 100 µM | GI50 (NCI-H460 lung) 4.17 µM | GI50 (NCI/ADR-RES ovarian) 3.86 µM | GI50 (OVCAR-4 ovarian) 5.4 µM | GI50 (U251 CNS) 4.34 µM | GI50 (SR leukemia) 3.86 µM | GI50 (TK-10 renal) > 100 µM | GI50 (786-0 renal) 19.3 µM | GI50 (HCC-2998 colon) 3.51 µM | GI50 (SF-268 CNS) 18.6 µM | GI50 (UO-31 renal) 2.14 µM | GI50 (SF-295 CNS) 2.63 µM | GI50 (SF-539 CNS) 5.81 µM | GI50 (IGROV1 ovarian) 3.55 µM | GI50 (HOP-62 NSCLC) 9.77 µM | GI50 (SNB-19 CNS) 4.37 µM
5.87 µM: TGI (RPMI-8226 leukemia)
5.73 µM: TGI (HOP-92 NSCLC)
